# Article PMC5361735, “Characterization and mechanisms of anti-influenza virus metabolites isolated from the Vietnamese medicinal plant Polygonum chinense” (BMC Complementary and Alternative Medicine, 2017)
# What was measured:
# [1] = molecular target: NA activity of rgPR8(H275Y) (Influenza A virus, UniProt P03468, H260Y); format: biochemical
# [2] = molecular target: NA activity of influenza virus PR8 (Influenza A virus, UniProt P03468); format: biochemical
smiles,measurement,setting,value
"O=C(O)/C=C/c1ccc(O)c(O)c1 [PC8, Caffeic acid]",NA inhibitory effect against rgPR8(H275Y),[1],consistent activity
same,NA inhibitory effect against PR8,[2],less potent than that of OSV-C
